Measurements as given in PubChem BioAssay (NCI).
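Compound exposure: 48 hours, 5 concentrations, 96-well plates. The concentration for full growth arrest is given as TGI.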

Columns and labels:
Assay in all cases: growth of human tumour cells (NCI), 48 h
[1] = system: EKVX NSCLC
[2] = system: HCC-2998 colon
[3] = system: HOP-62 NSCLC
[4] = system: MCF7 breast
[5] = system: NCI-H23 lung
[6] = system: NCI/ADR-RES ovarian
[7] = system: RXF 393 renal
[8] = system: SK-OV-3 ovarian
[9] = system: SW-620 colon
[10] = system: XF 498 CNS
[11] = system: 786-0 renal
[12] = system: SR leukemia
[13] = system: BT-549 breast
[14] = system: DU-145 prostate
[15] = system: HS 578T breast
[16] = system: MDA-MB-231 breast
[17] = system: MDA-MB-435
[18] = system: MDA-N
[19] = system: PC-3 prostate
[20] = system: T-47D breast

| Compound | TGI [1] [µM] | TGI [2] [µM] | TGI [3] [µM] | TGI [4] [µM] | TGI [5] [µM] | TGI [6] [µM] | TGI [7] [µM] | TGI [8] [µM] | TGI [9] [µM] | TGI [10] [µM] | TGI [11] [µM] | TGI [12] [µM] | TGI [13] [µM] | TGI [14] [µM] | TGI [15] [µM] | TGI [16] [µM] | TGI [17] [µM] | TGI [18] [µM] | TGI [19] [µM] | TGI [20] [µM] |
| --- | --- | --- | --- | --- | --- | --- | --- | --- | --- | --- | --- | --- | --- | --- | --- | --- | --- | --- | --- | --- |
| N#CC(OC1OC(COC2OC(CO)C(O)C(O)C2O)C(O)C(O)C1O)c1ccccc1 (stereo unspecified) | > 225 | > 225 | > 225 | > 225 | > 225 | > 225 | > 225 | > 225 | > 225 | > 225 |  |  |  |  |  |  |  |  |  |  |
| CN1C(=O)CSC1=S |  |  | > 100 |  | > 100 |  | > 100 | > 100 | > 100 |  | > 100 | > 100 |  |  |  |  |  |  |  |  |
| C=CC1C(OC2OC(CO)C(O)C(O)C2O)OC=C(C(=O)OC)C1CC1CC(=O)CC(CCc2ccc(O)cc2)O1 (stereo unspecified) | > 100 | > 100 | > 100 | > 100 | > 100 | > 100 | > 100 | > 100 | > 100 |  | > 100 | > 100 | > 100 | > 100 | > 100 | > 100 | > 100 | > 100 | > 100 | > 100 |
| O=C(c1ccccc1)c1c(-c2ccccc2)n(-c2ccccc2)[nH]c(=O)c1=O | > 100 | > 100 | > 100 | > 100 | > 100 | > 100 |  | > 100 |  |  | > 100 | > 100 | 91.7 | > 100 | 62.1 | 84.9 | > 100 | > 100 | 32.9 | > 100 |
| COc1ccc(/C(Cl)=C(\C=O)c2ccc(OC)c(OC)c2)cc1 | > 100 |  |  |  | > 100 |  |  | > 100 | > 100 | 56.1 |  |  |  |  |  |  |  |  |  |  |
| COC(=O)c1ccccc1Nc1nc(-c2cccs2)nc2cc(OC)c(OC)cc12 | > 100 |  | 42.1 | > 100 | > 100 | > 100 | > 100 | > 100 | > 100 |  | > 100 | > 100 | > 100 | > 100 | > 100 | > 100 | > 100 |  | > 100 | > 100 |
| O=C1NP23(OCCO2)Oc2ccccc2C3(C(F)(F)F)O1 (stereo unspecified) |  |  |  |  | > 100 |  |  | > 100 |  | > 100 |  |  |  |  |  |  |  |  |  |  |
| COc1ccc(CC2c3cc(OC)c(OC)cc3CC[N+]2(C)C)cc1OC (stereo unspecified) | > 100 | > 100 |  | > 100 | > 100 | > 100 |  | > 100 | > 100 |  | > 100 |  | > 100 | > 100 | > 100 | > 100 | > 100 | > 100 | > 100 | > 100 |
| Oc1cc(O)cc(-c2nc3cc(F)ccc3s2)c1 |  |  |  | 64.6 | 94.5 | > 100 | 72.4 | 70.4 | > 100 |  | 47.1 |  | 53.2 | > 100 |  | 55.8 | > 100 | > 100 | 83.6 | 51.4 |
| CCC(C)C1NC(=O)C(NC(=O)c2c3[nH]c4c(C(=O)NC5C(=O)NC(C(C)CC)C(=O)N6CCCC6C(=O)N(C)CC(=O)N(C)C(C(C)C)C(=O)OC5C)ccc(C)c4oc-3c(C)c(=O)c2=O)C(C)OC(=O)C(C(C)C)N(C)C(=O)CN(C)C(=O)C2CCCN2C1=O (stereo unspecified) | > 100 | 27.7 | > 100 | > 33 | 45.3 | > 100 | 25 | > 100 | > 93.7 |  | > 79.9 | 4 | > 72.4 | > 78 | 37.8 | 55.2 | > 71.6 | 33 | > 100 | > 40.5 |
| c1ccc([P+](CC[P+](c2ccccc2)(c2ccccc2)c2ccccc2)(c2ccccc2)c2ccccc2)cc1 | > 100 | 44.5 | > 100 | > 100 | > 100 | > 100 | > 83.4 | > 100 | > 100 |  | > 100 | > 79.8 | > 100 | > 100 | > 100 | 98.4 | 45.5 | > 61.8 | 60.6 | > 58.8 |
| O=C(O)C1C2C=CC(C2)C1c1ccccc1 (stereo unspecified) | > 100 | > 100 | > 100 | > 100 | > 100 | > 100 | > 100 | > 100 | > 100 |  | > 100 | > 100 |  | > 100 | > 100 | > 100 | > 100 | > 100 | > 100 | > 100 |
| COc1cccc2cc(C(=O)O)c(=O)oc12 | > 100 | > 100 | > 100 | > 100 | > 100 | > 100 | > 100 |  | > 100 |  | > 100 | > 100 | > 100 | > 100 | > 100 | > 100 | > 100 | > 100 | > 100 | > 100 |
| CC(=O)O/C(=C1\C[C@H]2[C@@H]3CC=C4C[C@@H](OC(C)=O)CC[C@]4(C)[C@H]3CC[C@]2(C)C1=O)C(F)(F)F | 37.9 | 19 | 32.8 | 17.8 | 18.3 | 46.6 | 15 | 44.5 | 19.8 |  | 20.6 | 10.9 | 34.7 | 25.2 | 20.8 | 27.6 | 16.4 | 14.9 | 27.3 | 21.2 |
